Measured values taken from patent US20240207427A1, “SELECTIVE DRUG RELEASE FROM INTERNALIZED CONJUGATES OF BIOLOGICALLY ACTIVE COMPOUNDS” (priority 2021, published 2024).
Like-named read-outs stand apart in the source and are kept apart here.

Columns and labels:
Assay type in all cases: cell-based
[1] = test system: renal carcinoma cells (786-O); assay: In vitro potency (CellTiter-Glo, 96 h), 786-O; conditions: Homo sapiens, 786-0, 96 h
Description: (§1) In vitro potency was assessed on multiple cancer cell lines. All cell lines were authenticated by STR profiling at IDEXX Bioresearch and cultured for no more than 2 months after resuscitation. Cells cultured in log-phase growth were seeded for 24 hours in 96-well plates containing […] RPMI 1640 supplemented with 20% FBS. Serial dilutions of antibody-drug conjugates in cell culture media were prepared at 4× working concentrations, and 50 μL of each dilution was added to the 96-well plates. Following addition of test articles, cells were incubated with test articles for 4 days at 37 0° C. After 96 hours, growth inhibition was assessed by CellTiterGlo® (Promega, Madison, WI) and luminescence was measured on a plate reader.
(§2) In Table 7, IC50 values for ADCs are given in ng/mL. Cell viability was determined by CellTiter-Glo staining after 96 h exposure to ADC. ND=Not Determined. Ag2 is an antibody targeting a ubiquitous and readily internalizable antigen. The cancer cell lines tested are renal carcinoma cells (786-0), melanoma cells (A2058), pancreatic cancer cells (BxPC3), non-small-cell lung cancer cells (Calu1), anaplastic large cell lymphoma cells (DEL, DELBVR, Karpas299), Hodgkin's lymphoma cells (L540cy), (Ls174T), breast cancer cells (MDA-MB-231), acute myeloid leukemia cells (MOLM-13), and B-lymphocyte cancer cells (SU-DHL4).
as §1, with “FBS.” for “FBS. Serial dilutions of antibody-drug conjugates in cell culture media were prepared at 4× working concentrations, and 50 μL of each dilution was added to the 96-well plates.”
(§3) Cell viability was determined by CellTiter-Glo staining after 96 h exposure to the compound. ND=Not Determined. The cancer cell lines tested are renal carcinoma cells (786-0), melanoma cells (A2058), pancreatic cancer cells (BxPC3), non-small-cell lung cancer cells (Calu1), anaplastic large cell lymphoma cells (DEL, DELBVR, Karpas299), Hodgkin's lymphoma cells (L540cy), (Ls 174T), breast cancer cells (MDA-MB-231), acute myeloid leukemia cells (MOLM-13), B-lymphocyte cancer cells (SU-DHL4), multiple myeloma cells (MM.1R), (U266), and melanoma cells (SK-MEL-5).
as §1, with “37°” for “37 0°”
(§4) In the following Tables IC50 values for ADCs and CPT free drugs are given in ng/mL and nmol/L concentrations. Cell viability was determined by CellTiter-Glo staining after 96 h exposure to ADC or CPT free drug.
(§5) Cell viability was determined by CellTiter-Glo staining after 96 h exposure to ADC. ND=Not Determined.

[2] = test system: pancreatic cancer cells (BxPC3); assay: In vitro potency (CellTiter-Glo, 96 h), BxPC3; conditions: Homo sapiens, BXPC-3, 96 h
Description: as §1, §2
as §1, with “FBS.” for “FBS. Serial dilutions of antibody-drug conjugates in cell culture media were prepared at 4× working concentrations, and 50 μL of each dilution was added to the 96-well plates.”
as §3
as §1, with “37°” for “37 0°”
as §4, §5

[3] = test system: anaplastic large cell lymphoma cells (DEL); assay: In vitro potency (CellTiter-Glo, 96 h), DEL
Description: as §1, §2
as §1, with “FBS.” for “FBS. Serial dilutions of antibody-drug conjugates in cell culture media were prepared at 4× working concentrations, and 50 μL of each dilution was added to the 96-well plates.”
as §3
as §1, with “37°” for “37 0°”
as §4, §5

[4] = test system: B-lymphocyte cancer cells (SU-DHL4); assay: In vitro potency (CellTiter-Glo, 96 h), SU-DHL-4; conditions: Homo sapiens, SU-DHL-4, 96 h
Description: as §1, §2
as §1, with “FBS.” for “FBS. Serial dilutions of antibody-drug conjugates in cell culture media were prepared at 4× working concentrations, and 50 μL of each dilution was added to the 96-well plates.”
as §3
as §1, with “37°” for “37 0°”
as §4, §5

[5] = test system: anaplastic large cell lymphoma cells (DELBVR); assay: In vitro potency (CellTiter-Glo, 96 h), DELBVR
Description: as §1, §2
as §1, with “FBS.” for “FBS. Serial dilutions of antibody-drug conjugates in cell culture media were prepared at 4× working concentrations, and 50 μL of each dilution was added to the 96-well plates.”
as §3
as §1, with “37°” for “37 0°”
as §4, §5

[6] = test system: anaplastic large cell lymphoma cells (Karpas299); assay: In vitro potency (CellTiter-Glo, 96 h), Karpas299; conditions: Homo sapiens, KARPAS-299, 96 h
Description: as §1, §2
as §1, with “FBS.” for “FBS. Serial dilutions of antibody-drug conjugates in cell culture media were prepared at 4× working concentrations, and 50 μL of each dilution was added to the 96-well plates.”
as §3
as §1, with “37°” for “37 0°”
as §4, §5

[7] = test system: Hodgkin's lymphoma cells (L540cy); assay: In vitro potency (CellTiter-Glo, 96 h), L540cy
Description: as §1, §2
as §1, with “FBS.” for “FBS. Serial dilutions of antibody-drug conjugates in cell culture media were prepared at 4× working concentrations, and 50 μL of each dilution was added to the 96-well plates.”
as §3
as §1, with “37°” for “37 0°”
as §4, §5

melanoma cells (A2058) = assay: In vitro potency (CellTiter-Glo, 96 h), A2058; conditions: Homo sapiens, A2058, 96 h, read-out: A2058 IC50
Description: as §1, §2
as §1, with “FBS.” for “FBS. Serial dilutions of antibody-drug conjugates in cell culture media were prepared at 4× working concentrations, and 50 μL of each dilution was added to the 96-well plates.”
as §3
as §1, with “37°” for “37 0°”
as §4, §5

Ls174T cells = assay: In vitro potency (CellTiter-Glo, 96 h), Ls174T; conditions: Homo sapiens, LS174T, 96 h
Description: as §1, §2
as §1, with “FBS.” for “FBS. Serial dilutions of antibody-drug conjugates in cell culture media were prepared at 4× working concentrations, and 50 μL of each dilution was added to the 96-well plates.”
as §3
as §1, with “37°” for “37 0°”
as §4, §5

[8] = test system: acute myeloid leukemia cells (MOLM-13); assay: In vitro potency (CellTiter-Glo, 96 h), MOLM-13; conditions: Homo sapiens, MOLM-13, 96 h
Description: as §1, §2
as §1, with “FBS.” for “FBS. Serial dilutions of antibody-drug conjugates in cell culture media were prepared at 4× working concentrations, and 50 μL of each dilution was added to the 96-well plates.”
as §3
as §1, with “37°” for “37 0°”
as §4, §5

[9] = test system: breast cancer cells (MDA-MB-231); assay: In vitro potency (CellTiter-Glo, 96 h), MDA-MB-231; conditions: Homo sapiens, MDA-MB-231, 96 h, read-out: MDAMB231 IC50, Table 29; CPT free drugs; breast cancer cells MDA-MB-231; 96 h, CellTiter-Glo
Description: as §1, §2
as §1, with “FBS.” for “FBS. Serial dilutions of antibody-drug conjugates in cell culture media were prepared at 4× working concentrations, and 50 μL of each dilution was added to the 96-well plates.”
as §3
as §1, with “37°” for “37 0°”
as §4, §5

[10] = read-out: 786-O IC50, Table 29, CPT free drugs, renal carcinoma cells 786-O, 96 h, CellTiter-Glo
[11] = read-out: BxPC3 IC50, Table 29, CPT free drugs, pancreatic cancer cells BxPC3, 96 h, CellTiter-Glo
[12] = read-out: DEL IC50, Table 29, CPT free drugs, anaplastic large cell lymphoma cells DEL, CellTiter-Glo
[13] = read-out: SU-DHL-4 IC50, Table 29, CPT free drugs, B-lymphocyte cancer cells SU-DHL4, 96 h, CellTiter-Glo
[14] = read-out: DELBVR IC50, Table 29, CPT free drugs, anaplastic large cell lymphoma cells DELBVR, CellTiter-Glo
[15] = read-out: Karpas299 IC50, Table 29, CPT free drugs, anaplastic large cell lymphoma cells Karpas299, 96 h, CellTiter-Glo
[16] = read-out: L540cy IC50, Table 29, CPT free drugs, Hodgkin's lymphoma cells L540cy, CellTiter-Glo
[17] = read-out: Ls174T IC50, Table 29, CPT free drugs, Ls174T cells, CellTiter-Glo
[18] = read-out: MOLM-13 IC50, Table 29, CPT free drugs, acute myeloid leukemia cells MOLM-13, 96 h, CellTiter-Glo

In the case of `CC[C@@]1(O)C(=O)OCc2c1cc1n(c2=O)Cc2c-1nc1cc3c(cc1c2CNCCN1CCN(C)CC1)OCO3` [Compound 7b], the IC50 ([1]; read-out: 786-O IC50, camptothecin free drug, 96 h) is reported as 162 nM, the IC50 ([2]; read-out: BxPC3 IC50, camptothecin free drug, 96 h) is reported as 172 nM and the IC50 ([3]; read-out: DEL IC50, camptothecin free drug, 96 h) is reported as 54 nM. The IC50 ([4]; read-out: SU-DHL-4 IC50, camptothecin free drug, 96 h) was 94 nM, the IC50 ([5]; read-out: DELBVR IC50, camptothecin free drug, 96 h) was 55 nM and the IC50 ([6]; read-out: Karpas299 IC50, camptothecin free drug, 96 h) was 158 nM. For the same compound, the IC50 ([7]; read-out: L540cy IC50, camptothecin free drug, 96 h) was 87 nM, the IC50 (melanoma cells (A2058)) was 55 nM and the IC50 (Ls174T cells; read-out: Ls174T IC50, camptothecin free drug, 96 h) was 77 nM. The IC50 ([8]; read-out: MOLM-13 IC50, camptothecin free drug, 96 h) was 533 nM.
Work on `CC[C@@]1(O)C(=O)OCc2c1cc1n(c2=O)Cc2c-1nc1cc3c(cc1c2CN1CCN(CCN)CC1)OCO3` [Compound 8c] yielded an IC50 [1, 10] of 27 nM, an IC50 [2, 11] of 14 nM and an IC50 [9] of 57 nM. It also gave an IC50 [3, 12] of 3 nM, an IC50 [4, 13] of 7 nM and an IC50 [5, 14] of 4 nM. For the same compound, the IC50 [6, 15] was 28 nM, the IC50 [7, 16] was 14 nM and the IC50 (Ls174T cells; [17]) was 32 nM. For the same compound, the IC50 [8, 18] was 69 nM.
Work on `CC[C@@]1(O)C(=O)OCc2c1cc1n(c2=O)Cc2c-1nc1cc3c(cc1c2CNCCCN1CCNCC1)OCO3` [Compound 8d] yielded an IC50 [1, 10] of 15 nM, an IC50 [2, 11] of 14 nM and an IC50 [9] of 25 nM. It also gave an IC50 [3, 12] of 2 nM, an IC50 [4, 13] of 6 nM and an IC50 [5, 14] of 2 nM. It also gave an IC50 [6, 15] of 9 nM, an IC50 [7, 16] of 6 nM and an IC50 (Ls174T cells; [17]) of 19 nM. For the same compound, the IC50 [8, 18] was 37 nM.
With `CC[C@@]1(O)C(=O)OCc2c1cc1n(c2=O)Cc2c-1nc1cc3c(cc1c2CNC1CCNCC1)OCO3` [Compound 8e] the IC50 [1, 10] was 104 nM, the IC50 [2, 11] was 62 nM and the IC50 [9] was 102 nM. For the same compound, the IC50 [3, 12] was 7 nM, the IC50 [4, 13] was 25 nM and the IC50 [5, 14] was 10 nM. For the same compound, the IC50 [6, 15] was 72 nM, the IC50 [7, 16] was 36 nM and the IC50 (Ls174T cells; [17]) was 109 nM. It also gave an IC50 [8, 18] of 89 nM.
